Measurements published in ChEMBL document CHEMBL3045773, “Synthesis and structureactivity relationship of acylthiourea derivatives as inhibitors of microsomal epoxide hydrolase” (Med Chem Res, 2012).

Molecular target: T1, Epoxide hydrolase 1 (Homo sapiens, UniProt P07099)
T1 sequence (P07099 whole entry): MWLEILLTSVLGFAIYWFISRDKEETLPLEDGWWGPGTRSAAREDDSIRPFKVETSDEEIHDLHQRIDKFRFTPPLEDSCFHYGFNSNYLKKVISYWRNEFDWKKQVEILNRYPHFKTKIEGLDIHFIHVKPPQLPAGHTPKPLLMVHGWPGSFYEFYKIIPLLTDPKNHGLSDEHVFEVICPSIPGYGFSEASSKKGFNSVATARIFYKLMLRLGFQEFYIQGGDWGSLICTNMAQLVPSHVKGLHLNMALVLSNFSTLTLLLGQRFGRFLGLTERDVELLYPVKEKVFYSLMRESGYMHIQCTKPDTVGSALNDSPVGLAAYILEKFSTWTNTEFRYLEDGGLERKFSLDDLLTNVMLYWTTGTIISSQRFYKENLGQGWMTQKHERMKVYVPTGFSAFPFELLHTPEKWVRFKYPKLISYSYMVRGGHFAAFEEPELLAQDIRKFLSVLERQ
Test: Inhibition of microsomal epoxide hydrolase (unknown origin) using 7-(2-(Oxiran-2-yl)ethoxy) Resorufin by fluorometric method

SMILES	IC50 [nM]
CC(C)(C)NC(=S)NC(=O)c1ccccc1	1580
O=C(NC(=S)NC12CC3CC(CC(C3)C1)C2)c1ccccc1	1010
CC(=O)NC(=S)Nc1ccccc1C	1500
CC(=O)NC(=S)Nc1ccc(Cl)cc1	2210
CC(=O)NC(=S)Nc1ccc(Br)cc1	1640
CC(=O)NC(=S)Nc1cc(Cl)ccc1Cl	2290
CCOc1ccc(OCC)c(NC(=S)NC(C)=O)c1	2530
CC(=O)NC(=S)Nc1ccc(Br)c(C(F)(F)F)c1	1390
COc1cc([N+](=O)[O-])ccc1NC(=S)NC(C)=O	1870
COc1cc(C)ccc1NC(=S)NC(C)=O	1690
CC(=O)NC(=S)Nc1ccc(N2CCOCC2)cc1	2590
CC(=O)NC(=S)NC(C)(C)C	2700
CC(=O)NC(=S)Nc1ccncc1	2070
CC(=O)NC(=S)Nc1ccc(Br)c2ccccc12	2420
CC(=O)NC(=S)NC12CC3CC(CC(C3)C1)C2	1120
CC(=O)NC(=S)Nc1ccccc1 [N-(PHENYLCARBAMOTHIOYL)ACETAMIDE]	2350

Results, then the molecule that gave them:

IC50 [nM]	SMILES
1720	O=C(NC(=S)Nc1ccc(N2CCOCC2)cc1)c1ccccc1
1640	O=C(NC(=S)Nc1ccc(Cl)cc1)c1ccccc1
1650	COc1cc([N+](=O)[O-])ccc1NC(=S)NC(=O)c1ccccc1
2540	COc1cc(C)ccc1NC(=S)NC(=O)c1ccccc1
2100	O=C(NC(=S)Nc1ccc(Oc2ccccc2)cc1)c1ccccc1
2280	O=C(NC(=S)Nc1ccncc1)c1ccccc1
1880	O=C(NC(=S)Nc1ccc(Br)c2ccccc12)c1ccccc1
3700	CC(=O)NC(=S)Nc1ccc(Oc2ccccc2)cc1
3540	Cc1ccccc1NC(=S)NC(=O)c1ccccc1
3440	O=C(NC(=S)Nc1ccc(Br)cc1)c1ccccc1
2150	O=C(NC(=S)Nc1cc(Cl)ccc1Cl)c1ccccc1
2040	CCOc1ccc(OCC)c(NC(=S)NC(=O)c2ccccc2)c1
1170	O=C(NC(=S)Nc1ccc(Br)c(C(F)(F)F)c1)c1ccccc1
1200	O=C(Nc1ccccc1)Nc1ccccc1
1290	O=C(NC(=S)Nc1ccccc1)c1ccccc1 [N-(PHENYLCARBAMOTHIOYL)BENZAMIDE]
